Experimental data taken from patent publication US11197862B2, “Methods of preventing toxicity of platinum drugs” (XOMICS BIOPHARMA, INC., priority 2015, dated 2021).
Where two headings read alike, the source gives them in different places.

Columns and labels:
[1] = molecular target: T1, OCT2 (Homo sapiens, UniProt O15244); assay: Inhibition of OCT2-mediated oxaliplatin transport in 100% human serum or HBSS containing 4% BSA (IC50,app); conditions: for fold higher potency for OCT2 over OCT1, OCT3, MATE1 and MATE2K in transporting oxaliplatin: from IC50,app of Table 4
T1 sequence (O15244 1-555): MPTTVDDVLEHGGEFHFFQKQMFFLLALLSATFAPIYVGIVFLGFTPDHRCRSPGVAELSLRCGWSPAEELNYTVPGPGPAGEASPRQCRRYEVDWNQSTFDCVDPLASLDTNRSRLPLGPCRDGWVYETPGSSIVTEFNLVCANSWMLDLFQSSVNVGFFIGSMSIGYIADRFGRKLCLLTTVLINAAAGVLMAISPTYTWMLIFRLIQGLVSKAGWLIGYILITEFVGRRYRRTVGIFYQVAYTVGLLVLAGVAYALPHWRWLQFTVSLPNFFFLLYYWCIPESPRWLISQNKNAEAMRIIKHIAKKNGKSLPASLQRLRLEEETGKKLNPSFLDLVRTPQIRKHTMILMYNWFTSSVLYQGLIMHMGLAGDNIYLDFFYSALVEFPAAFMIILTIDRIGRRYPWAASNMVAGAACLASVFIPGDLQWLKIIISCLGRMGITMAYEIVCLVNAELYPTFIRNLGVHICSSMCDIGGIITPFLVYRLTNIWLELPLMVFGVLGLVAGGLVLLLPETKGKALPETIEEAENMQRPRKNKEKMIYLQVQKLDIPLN

[2] = molecular target: T1, OCT2; assay: Inhibition of OCT2-mediated oxaliplatin uptake in transfected MDCK-II cells (protein-free HBSS); conditions: for inhibition at 30 min, 5 μM / inhibition at 30 min, 50 μM / potency estimated from few doses at 30 min: human
Source text: Fully confluent MDCK cell monolayers were transfected with either cDNA plasmids encoding the human transporter to be tested or a GFP control. […] The cells were then washed with ice-cold PBS and lysed with 50:50 acetonitrile:H2O. Intracellular content of the substrate was quantified by LC/MS/MS or a MicroBeta radiometric plate reader.

[3] = molecular target: T2, OCT3 (Homo sapiens, UniProt O75751); assay: Inhibition of OCT3-mediated oxaliplatin transport in human serum or 4% BSA HBSS
T2 sequence (O75751 1-556): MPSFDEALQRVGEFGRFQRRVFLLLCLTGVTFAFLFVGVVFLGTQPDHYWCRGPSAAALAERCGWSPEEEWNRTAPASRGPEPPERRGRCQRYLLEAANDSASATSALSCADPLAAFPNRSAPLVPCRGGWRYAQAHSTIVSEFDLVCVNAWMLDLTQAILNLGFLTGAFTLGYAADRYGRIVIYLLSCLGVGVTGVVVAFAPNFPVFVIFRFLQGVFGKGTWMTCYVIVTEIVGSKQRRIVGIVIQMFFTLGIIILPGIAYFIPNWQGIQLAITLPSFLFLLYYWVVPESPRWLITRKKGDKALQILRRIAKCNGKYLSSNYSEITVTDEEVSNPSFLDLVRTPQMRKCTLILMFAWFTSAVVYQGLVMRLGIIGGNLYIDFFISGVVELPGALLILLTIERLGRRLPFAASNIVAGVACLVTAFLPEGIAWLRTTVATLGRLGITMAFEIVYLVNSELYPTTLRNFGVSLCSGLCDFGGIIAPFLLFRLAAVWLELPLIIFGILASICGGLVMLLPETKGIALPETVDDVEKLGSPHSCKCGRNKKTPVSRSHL

[4] = molecular target: T1, OCT2; conditions: OCT2-mediated uptake; ASP+ 5 μM in HBSS; from Kido Y et al. J Med Chem 2011; cited from earlier work
[5] = molecular target: T1, OCT2; assay: Inhibition of OCT2-mediated metformin uptake in transfected MDCK-II cells
[6] = cited from earlier work; for Plasma protein binding (%): published data
[7] = molecular target: T3, OCT1 (Homo sapiens, UniProt O15245); assay: Inhibition of OCT1-mediated oxaliplatin transport in human serum or 4% BSA HBSS
T3 sequence (O15245 1-554): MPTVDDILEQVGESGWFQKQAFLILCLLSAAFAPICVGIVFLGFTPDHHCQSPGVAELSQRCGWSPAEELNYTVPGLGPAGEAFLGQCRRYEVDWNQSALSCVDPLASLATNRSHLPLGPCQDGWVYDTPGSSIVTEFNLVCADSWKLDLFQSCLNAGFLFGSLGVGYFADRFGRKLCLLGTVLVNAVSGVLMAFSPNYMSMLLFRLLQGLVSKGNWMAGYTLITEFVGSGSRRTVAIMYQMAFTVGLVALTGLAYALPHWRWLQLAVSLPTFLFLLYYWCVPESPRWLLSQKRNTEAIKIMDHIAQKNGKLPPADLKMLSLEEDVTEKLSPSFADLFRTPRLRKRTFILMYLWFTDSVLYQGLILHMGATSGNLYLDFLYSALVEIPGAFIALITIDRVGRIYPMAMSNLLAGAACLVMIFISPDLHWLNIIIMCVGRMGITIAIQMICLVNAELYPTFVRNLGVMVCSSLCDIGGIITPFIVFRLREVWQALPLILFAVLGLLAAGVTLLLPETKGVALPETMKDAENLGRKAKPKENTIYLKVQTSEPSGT

[8] = molecular target: T1, OCT2; assay: Cmax,u/IC50 or Cmax/IC50,app ratio for clinically relevant inhibition of OCT2-mediated oxaliplatin uptake; design: expressed in transfected cells; host or cells: MDCK-II (Madin-Darby canine kidney type II)
Source text: The FDA has published guidance in predicting if a drug is likely to be a transporter inhibitor in clinics by using data attained in in vitro models. Cmax,u denotes the maximum free, unbound plasma concentration of a drug. […] Thus, characteristics of the in vitro model may be used to predict in vivo effectiveness.

[9] = molecular target: T4, OCT2 over OCT1, OCT3 and MATE1 (Homo sapiens, UniProt O15244); assay: Inhibition of OCT2-mediated oxaliplatin transport in 100% human serum or HBSS containing 4% BSA (IC50,app); conditions: human, MDCK-II cells transfected with human transporters, fold higher potency (selectivity) for OCT2 over OCT1, OCT3 and MATE1 in transporting oxaliplatin, from IC50,app of Table 4
T4 sequence (O15244 1-555): T1 sequence (O15244 1-555)

[10] = IC50,app (μM), apparent inhibition constant in 100% human serum or HBSS containing 4% BSA, OCT2-mediated oxaliplatin uptake
[11] = OCT2 IC50, app (μM), 100% human serum or HBSS containing 4% BSA, 20 μM or 100 μM oxaliplatin
[12] = 600 mg dosed IV bolus (FIG. 1B)
[13] = read-out: Plasma peak total concentration Cmax, published clinical pharmacokinetic data
[14] = MDCK-II cells transfected with human OCT2, probe oxaliplatin 10 μM

Compound | IC50 [1, 10] [µM] | IC50 [1, 11] [µM] | fold higher potency for OCT2 over OCT1, OCT3, MATE1 and MATE2K in transporting oxaliplatin [1] | IC50 [2] [µM] | inhibition at 30 min, 5 μM [2] [%] | inhibition at 30 min, 50 μM [2] [%] | IC50 [3] [µM] | Inhibition % @ 20 μM (substrate ASP+) [4] [%] | IC50 [5] [µM] | Plasma protein binding (%) [6] [%] | Cmax [6, 13] [µM] | IC50 [7] [µM] | selectivity ratio [9] | further results
Clc1ccc(COC(Cn2ccnc2)c2ccc(Cl)cc2Cl)c(Cl)c1 (stereo not shown) [Miconazole] | 3.3 | 3.3 ± 0.6 | at least 2 fold | 1.55 | 39 | 97 | 49.2 ± 22.6 | 91 | 142 | 92 | 14.9 | 8.4 ± 1.5 | – | potency estimated from few doses at 30 min ([2]; IC50 (μM) (substrate Oxaliplatin)): 1.55 µM; fold less potent in inhibiting OCT2-mediated metformin transport than ASP+ and oxaliplatin transport ([5]; comparison of Table 1 potencies): approximately 70 fold; decrease of plasma concentration at 3 hour [6, 12]: nearly five-fold decrease at 3 hour; plasma half-time (initial phase) [6, 12]: 0.4 h; Mean Cmax ([6]; 800 mg IV): 5000 ng/mL; Mean T1/2 (hour), distribution phase ([6]; 800 mg IV): 0.4 (dis- hour; Mean T1/2 (hour), terminal phase ([6]; 800 mg IV): phase), 8.9 hour; Cmax ([6]; read-out: Mean Cmax, 800 mg IV): 12 µM; Cmax/IC50, app ratio ([8]; 800 mg IV): 3.64
COc1cc(OC)c(C(=O)CCCN2CCCC2)c(OC)c1 [Buflomedil, 4-pyrrolidin-1-yl-1-(2,4,6-trimethoxyphenyl)butan-1-one] | 1.45 | 1.4 ± 0.2 | at least 20 fold | 0.78 | 87 | 105 | 28 ± 11.4 | 104 | 5.7 ± 0.8 | 70 | 6.8 | 34.6 ± 7.6 | > 10 | Mean Cmax ([6]; 300 mg po, bid): 2100 ng/mL; Mean T1/2 ([6]; 300 mg po, bid): 3.4 h; Mean Cmax ([6]; 600 mg slow-release, po, qd): 2200 ng/mL; Mean T1/2 ([6]; 600 mg slow-release, po, qd): >10 h; average clearance ([6]; Group A patients): 292 mL/min; average clearance ([6]; Group B patients, seniors (average age 82 yrs) with impaired renal clearance): 99.5 mL/min; Cmax ([6]; read-out: Mean Cmax, 300 mg po, bid): 6.8 µM; Cmax ([6]; read-out: Mean Cmax, 600 mg slow-release, po, qd): 7.2 µM; Cmax/IC50, app ratio ([8]; 300 mg po, bid): 4.69; Cmax/IC50, app ratio ([8]; 600 mg slow-release, po, qd): 4.97
C[C@@H]1CCO[C@H]2Cn3cc(C(=O)NCc4ccc(F)cc4F)c(=O)c(O)c3C(=O)N12 [Dolutegravir] | 3.37 | 3.4 ± 1 | – | 0.2 | – | – | > 100 | – | 0.54 ± 0.09 | 99.5 | 10.9 | > 100 | ≥ 10 | inhibition at 30 min, 5 μM [2, 14]: 83%; inhibition at 30 min, 50 μM [2, 14]: 97%; potency estimated from few doses at 30 min [2, 14]: 0.2 µM; Mean Cmax ([6]; 50 mg po qd, day 10): 6160 ng/mL; Mean T1/2 ([6]; 50 mg po qd, day 10): ~15 h; Mean Cmax ([6]; 50 mg po qd, single dose): 4560 ng/mL; Mean T1/2 ([6]; 50 mg po qd, single dose): 14.2 h; Cmax ([6]; read-out: Mean Cmax, 50 mg po qd, day 10): 14.7 µM; Cmax ([6]; read-out: Mean Cmax, 50 mg po qd, single dose): 10.9 µM; Cmax/IC50, app ratio ([8]; 50 mg po qd, day 10): 4.36; Cmax/IC50, app ratio ([8]; 50 mg po qd, single dose): 3.23
